Reference: patent US20080138835A1 (priority 2004, published 2008)
pIC50: −log10 of the molar value. Values after ≈ are worked out from the molar mass of the structure shown. Where two headings read alike, the source gives them in different places.

What was measured:
[1] = system: S. aureus RN4220; assay: microbe, parasite or virus in culture; format: cell-based; conditions: for MIC: Staphylococcus aureus
[2] = system: S. aureus; assay: microbe, parasite or virus in culture; format: cell-based; conditions: for MIC: Staphylococcus aureus
[3] = system: S. aureus; format: cell-based
[4] = system: S. aureus; assay: microbe, parasite or virus in culture; format: cell-based; conditions: Staphylococcus aureus
[5] = system: staphylococci and streptococci; assay: organism not typed; format: cell-based
[6] = system: S. aureus mutants; assay: microbe, parasite or virus in culture; format: cell-based; conditions: Staphylococcus aureus, ATCC43300
[7] = molecular target: S. aureus MetS (Staphylococcus aureus, UniProt P67579); assay: biochemical
[8] = molecular target: H influenzae MetG (Haemophilus influenzae, UniProt P43828); assay: biochemical
[9] = molecular target: E. coli MetG (Escherichia coli, UniProt P00959); assay: biochemical
[10] = molecular target: S. pneumoniae MetS2 (Streptococcus pneumoniae, UniProt A2MSJ4); assay: biochemical
[11] = system: staphylococci; conditions: cited from earlier work
[12] = RN4220, pYH4 vector control, +aTc inducer
[13] = RN4220, pYH4 vector control, −aTc inducer
[14] = 1079077 (MRSA), 10^10 CFU, five days
[15] = ATCC 29213 (MSSA), 10^10 CFU, five days
[16] = ATCC 43300 (MRSA), 10^10 CFU, five days
[17] = LZ10 (MRSA), 10^10 CFU, five days
[18] = S. aureus, including MSSA and MRSA strains
[19] = ATCC 29213 / MSSA, read-out: MIC After 20 passages, S. aureus ATCC29213, MSSA, MupS
[20] = ATCC 29213 / MSSA, read-out: MIC Initial, S. aureus ATCC29213, MSSA, MupS
[21] = ATCC 43300 / MRSA, read-out: MIC After 20 passages, S. aureus ATCC43300, MRSA, MupS
[22] = MRSA / NRS 103, read-out: MIC After 20 passages, S. aureus NRS103, MRSA, MupS
[23] = MRSA / NRS 103, read-out: MIC Initial, S. aureus NRS103, MRSA, MupS
[24] = MRSA, read-out: MIC After 20 passages, S. aureus 10-420, MRSA, HL-MupR
[25] = MRSA, read-out: MIC After 20 passages, S. aureus 25-670, MRSA, HL-MupR
[26] = MRSA, read-out: MIC After 20 passages, S. aureus 31-1334, MRSA, LL-MupR
[27] = MRSA, read-out: MIC After 20 passages, S. aureus 87-2797, MRSA, HL-MupR
[28] = MRSA, read-out: MIC After 20 passages, S. aureus 1079077, MRSA, MupS
[29] = MRSA, read-out: MIC After 20 passages, S. aureus LZ1, MRSA, HL-MupR
[30] = MRSA, read-out: MIC After 20 passages, S. aureus LZ6, MRSA, HL-MupR
[31] = MRSA, read-out: MIC After 20 passages, S. aureus LZ10, MRSA, MupS
[32] = MRSA, read-out: MIC Initial, S. aureus 10-420, MRSA, HL-MupR
[33] = MRSA, read-out: MIC Initial, S. aureus 25-670, MRSA, HL-MupR
[34] = MRSA, read-out: MIC Initial, S. aureus 31-1334, MRSA, LL-MupR
[35] = MRSA, read-out: MIC Initial, S. aureus 87-2797, MRSA, HL-MupR
[36] = MRSA, read-out: MIC Initial, S. aureus 1079077, MRSA, MupS
[37] = MRSA, read-out: MIC Initial, S. aureus LZ1, MRSA, HL-MupR
[38] = MRSA, read-out: MIC Initial, S. aureus LZ6, MRSA, HL-MupR
[39] = MRSA, read-out: MIC Initial, S. aureus LZ10, MRSA, MupS
[40] = MSSA / NRS 107, read-out: MIC After 20 passages, S. aureus NRS107, MSSA, HL-MupR
[41] = MSSA / NRS 107, read-out: MIC Initial, S. aureus NRS107, MSSA, HL-MupR
[42] = MSSA, read-out: MIC After 20 passages, S. aureus 1079101, MSSA, HL-MupR
[43] = MSSA, read-out: MIC Initial, S. aureus 1079101, MSSA, HL-MupR

Sequence of S. pneumoniae MetS2 (A2MSJ4 1-545): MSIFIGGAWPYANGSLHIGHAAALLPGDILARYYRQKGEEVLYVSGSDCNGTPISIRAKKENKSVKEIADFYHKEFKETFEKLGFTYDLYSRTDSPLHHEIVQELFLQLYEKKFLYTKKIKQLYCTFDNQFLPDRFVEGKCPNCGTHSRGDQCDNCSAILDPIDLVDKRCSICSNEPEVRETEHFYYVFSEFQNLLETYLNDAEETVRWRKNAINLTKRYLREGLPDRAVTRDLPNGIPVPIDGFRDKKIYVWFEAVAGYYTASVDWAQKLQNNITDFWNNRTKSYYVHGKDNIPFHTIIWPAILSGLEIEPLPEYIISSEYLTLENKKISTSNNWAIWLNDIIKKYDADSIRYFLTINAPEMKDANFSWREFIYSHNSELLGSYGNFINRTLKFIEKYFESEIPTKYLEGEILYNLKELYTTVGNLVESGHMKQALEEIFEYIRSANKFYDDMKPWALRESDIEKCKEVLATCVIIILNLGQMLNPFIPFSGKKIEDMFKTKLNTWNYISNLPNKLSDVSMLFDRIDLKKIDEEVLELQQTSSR
Sequence of H influenzae MetG (P43828 whole entry): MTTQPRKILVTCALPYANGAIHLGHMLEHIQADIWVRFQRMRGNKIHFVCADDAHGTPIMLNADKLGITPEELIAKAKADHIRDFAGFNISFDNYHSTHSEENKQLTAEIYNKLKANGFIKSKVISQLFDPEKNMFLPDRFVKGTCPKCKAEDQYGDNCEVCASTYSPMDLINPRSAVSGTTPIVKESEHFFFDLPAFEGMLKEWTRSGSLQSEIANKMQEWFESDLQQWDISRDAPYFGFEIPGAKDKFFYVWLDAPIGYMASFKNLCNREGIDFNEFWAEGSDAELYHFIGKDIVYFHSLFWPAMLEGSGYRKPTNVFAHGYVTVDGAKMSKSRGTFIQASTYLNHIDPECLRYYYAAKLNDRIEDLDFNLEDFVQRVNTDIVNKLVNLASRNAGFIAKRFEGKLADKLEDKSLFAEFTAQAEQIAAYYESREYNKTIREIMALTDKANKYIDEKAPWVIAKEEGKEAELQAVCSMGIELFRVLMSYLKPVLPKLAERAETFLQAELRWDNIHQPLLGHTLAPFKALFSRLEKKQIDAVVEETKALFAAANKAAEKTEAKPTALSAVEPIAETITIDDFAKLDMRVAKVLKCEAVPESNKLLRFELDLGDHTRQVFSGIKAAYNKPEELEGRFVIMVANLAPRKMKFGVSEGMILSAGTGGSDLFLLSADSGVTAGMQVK
Sequence of E. coli MetG (P00959 whole entry, looked up): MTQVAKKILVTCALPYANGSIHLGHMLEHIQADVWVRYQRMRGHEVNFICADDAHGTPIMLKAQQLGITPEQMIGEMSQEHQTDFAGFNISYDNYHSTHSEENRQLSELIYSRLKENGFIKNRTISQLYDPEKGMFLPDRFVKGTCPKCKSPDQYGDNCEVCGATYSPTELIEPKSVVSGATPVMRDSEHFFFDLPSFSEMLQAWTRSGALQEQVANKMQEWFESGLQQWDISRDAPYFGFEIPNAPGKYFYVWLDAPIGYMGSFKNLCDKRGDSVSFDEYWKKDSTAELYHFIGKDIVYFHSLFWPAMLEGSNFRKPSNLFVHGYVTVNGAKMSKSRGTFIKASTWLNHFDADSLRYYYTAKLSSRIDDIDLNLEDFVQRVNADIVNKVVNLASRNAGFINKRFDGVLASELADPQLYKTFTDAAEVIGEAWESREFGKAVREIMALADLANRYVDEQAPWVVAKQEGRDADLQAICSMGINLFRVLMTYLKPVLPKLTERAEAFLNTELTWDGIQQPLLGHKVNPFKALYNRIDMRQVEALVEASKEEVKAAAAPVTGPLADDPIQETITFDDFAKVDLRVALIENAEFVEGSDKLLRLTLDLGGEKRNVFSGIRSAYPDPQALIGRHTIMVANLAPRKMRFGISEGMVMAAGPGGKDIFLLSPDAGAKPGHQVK
Sequence of S. aureus MetS (P67579 whole entry): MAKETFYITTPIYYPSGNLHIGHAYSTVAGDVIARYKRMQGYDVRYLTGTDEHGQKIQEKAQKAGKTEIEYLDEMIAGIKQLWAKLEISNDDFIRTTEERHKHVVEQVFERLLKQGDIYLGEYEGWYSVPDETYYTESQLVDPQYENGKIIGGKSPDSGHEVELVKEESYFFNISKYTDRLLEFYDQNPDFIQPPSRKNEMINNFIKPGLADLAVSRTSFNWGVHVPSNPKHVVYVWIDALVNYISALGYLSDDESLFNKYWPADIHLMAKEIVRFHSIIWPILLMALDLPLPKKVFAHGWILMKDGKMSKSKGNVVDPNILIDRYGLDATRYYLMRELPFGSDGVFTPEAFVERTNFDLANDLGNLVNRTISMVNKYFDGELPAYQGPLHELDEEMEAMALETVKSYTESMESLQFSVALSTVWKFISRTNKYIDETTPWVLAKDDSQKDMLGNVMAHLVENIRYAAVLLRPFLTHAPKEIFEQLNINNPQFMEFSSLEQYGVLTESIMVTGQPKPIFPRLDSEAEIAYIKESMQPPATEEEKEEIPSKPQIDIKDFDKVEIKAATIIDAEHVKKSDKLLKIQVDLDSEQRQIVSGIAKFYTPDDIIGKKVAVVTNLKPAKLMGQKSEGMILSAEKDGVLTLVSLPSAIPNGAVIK

In the case of `C=C(F)c1sc(CNCCCNc2cc(=O)c3ccccc3[nH]2)c(C)c1Br` [Compound 1, N-(4-bromo-5-(1-fluorovinyl)-3-methylthiophen-2-ylmethyl)-N′-(1H-quinolin-4-one)propane-1,3-diamine], the “shift in the MIC upon induction of MRS expression” value ([1]; RN4220 (pYH4-MRS)) was 8 fold, the MIC ([1]; RN4220, pYH4-MRS, +aTc inducer) was 1 mg/L (≈ 2.22 µM) and the MIC ([1]; RN4220, pYH4-MRS, −aTc inducer) was 0.12 mg/L (≈ 0.266 µM). For the same compound, the MIC [1, 12] was 0.008 mg/L (≈ 0.0178 µM), the MIC [1, 13] was 0.008 mg/L (≈ 0.0178 µM) and the “initial MIC range” value [2] was 0.03 to 0.5 mg/L. It also gave an MIC [2] of 0.5 mg/L (≈ 1.11 µM), an MIC ([2]; ATCC 29213 / MSSA) of 0.03 mg/L (≈ 0.0666 µM) and an MIC ([2]; ATCC 43300 / MRSA) of 0.06 mg/L (≈ 0.133 µM). For the same compound, the MPC [3, 14] was 32 µg/mL, the MPC [3, 15] was 32 µg/mL and the MPC [3, 16] was 32 µg/mL. For the same compound, the MPC [3, 17] was 32 µg/mL, the MPC [3, 18] was 32 µg/mL and the MIC [4, 19] was 4 mg/L (≈ 8.88 µM). The MIC [4, 20] was 0.06 mg/L (≈ 0.133 µM), the MIC [4, 21] was 1 mg/L (≈ 2.22 µM) and the MIC [4, 22] was 1 mg/L (≈ 2.22 µM). The MIC [4, 23] was 0.12 mg/L (≈ 0.266 µM), the MIC [4, 24] was 8 mg/L (≈ 17.8 µM) and the MIC [4, 25] was 8 mg/L (≈ 17.8 µM). It also gave an MIC [4, 26] of 8 mg/L (≈ 17.8 µM), an MIC [4, 27] of 16 mg/L (≈ 35.5 µM) and an MIC [4, 28] of 16 mg/L (≈ 35.5 µM). The MIC [4, 29] was 0.06 mg/L (≈ 0.133 µM), the MIC [4, 30] was 2 mg/L (≈ 4.44 µM) and the MIC [4, 31] was 0.5 mg/L (≈ 1.11 µM). It also gave an MIC [4, 32] of 0.06 mg/L (≈ 0.133 µM), an MIC [4, 33] of 0.06 mg/L (≈ 0.133 µM) and an MIC [4, 34] of 0.03 mg/L (≈ 0.0666 µM). It also gave an MIC [4, 35] of 0.03 mg/L (≈ 0.0666 µM), an MIC [4, 36] of 0.25 mg/L (≈ 0.555 µM) and an MIC [4, 37] of 0.06 mg/L (≈ 0.133 µM). The MIC [4, 38] was 0.06 mg/L (≈ 0.133 µM), the MIC [4, 39] was 0.03 mg/L (≈ 0.0666 µM) and the MIC [4, 40] was 0.5 mg/L (≈ 1.11 µM). The MIC [4, 41] was 0.015 mg/L (≈ 0.0333 µM), the MIC [4, 42] was 16 mg/L (≈ 35.5 µM) and the MIC [4, 43] was 0.06 mg/L (≈ 0.133 µM). The “MIC range after twenty serial passages” value ([5]; strains of Table 4) was 0.06 to 16 mg/L, the MIC initial range ([5]; strains of Table 4, before passages) was 0.015 to 0.06 mg/L and the MIC [6] was 2 mg/L (≈ 4.44 µM). The pIC50 [7] was greater than 8.72, the pIC50 [8] was 7.60 and the pIC50 [9] was 6.51. It also gave a pIC50 [10] of less than 6.30.

For `C/C(=C\C(=O)OCCCCCCCCC(=O)O)C[C@@H]1OC[C@H](C[C@@H]2O[C@H]2[C@@H](C)[C@H](C)O)[C@@H](O)[C@H]1O` [Mupirocin], the “MIC change upon MRS overexpression” value [1] was “remained unchanged”, the MIC ([1]; RN4220, pYH4-MRS, +aTc inducer) was 0.06 mg/L (≈ 0.12 µM) and the MIC ([1]; RN4220, pYH4-MRS, −aTc inducer) was 0.06 mg/L (≈ 0.12 µM). For the same compound, the MIC [1, 12] was 0.06 mg/L (≈ 0.12 µM), the MIC [1, 13] was 0.06 mg/L (≈ 0.12 µM) and the MIC ([2]; ATCC 29213 / MSSA) was 0.12 mg/L (≈ 0.24 µM). The MIC ([2]; ATCC 43300 / MRSA) was 0.12 mg/L (≈ 0.24 µM), the MPC [3, 14] was greater than 32 µg/mL and the MPC [3, 15] was 32 µg/mL. For the same compound, the MPC [3, 16] was 32 µg/mL, the MPC [3, 17] was greater than 32 µg/mL and the MPC [3, 18] was no less than 32 µg/mL. The MIC [4, 19] was 0.5 mg/L (≈ 0.999 µM), the MIC [4, 20] was 0.06 mg/L (≈ 0.12 µM) and the MIC [4, 21] was 8 mg/L (≈ 16 µM). It also gave an MIC ([4]; ATCC 43300 / MRSA, read-out: MIC Initial, S. aureus ATCC43300, MRSA, MupS) of 0.06 mg/L (≈ 0.12 µM), an MIC [4, 22] of 1 mg/L (≈ 2 µM) and an MIC [4, 23] of 0.25 mg/L (≈ 0.499 µM). The MIC [4, 24] was 4100 mg/L (≈ 8180 µM), the MIC [4, 25] was 4100 mg/L (≈ 8180 µM) and the MIC [4, 26] was 128 mg/L (≈ 256 µM). For the same compound, the MIC [4, 27] was 4100 mg/L (≈ 8180 µM), the MIC [4, 28] was 1 mg/L (≈ 2 µM) and the MIC [4, 29] was 4100 mg/L (≈ 8180 µM). The MIC [4, 30] was 4100 mg/L (≈ 8180 µM), the MIC [4, 31] was 2 mg/L (≈ 3.99 µM) and the MIC [4, 32] was 4100 mg/L (≈ 8180 µM). The MIC [4, 33] was 2050 mg/L (≈ 4090 µM), the MIC [4, 34] was 32 mg/L (≈ 63.9 µM) and the MIC [4, 35] was 2050 mg/L (≈ 4090 µM). The MIC [4, 36] was 0.5 mg/L (≈ 0.999 µM), the MIC [4, 37] was 4100 mg/L (≈ 8180 µM) and the MIC [4, 38] was 4100 mg/L (≈ 8180 µM). The MIC [4, 39] was 0.25 mg/L (≈ 0.499 µM), the MIC [4, 40] was 4100 mg/L (≈ 8180 µM) and the MIC [4, 41] was 4100 mg/L (≈ 8180 µM). The MIC [4, 42] was 4100 mg/L (≈ 8180 µM), the MIC [4, 43] was 4100 mg/L (≈ 8180 µM) and the “MIC range after 20 passages” value ([5]; mupirocin-susceptible strains) was 0.5 to 8 mg/L. The MIC range initial ([5]; mupirocin-susceptible strains) was 0.06 to 0.5 mg/L, the MIC ([5]; read-out: MIC after 20 passages) was 128 mg/L (≈ 256 µM) and the MIC ([5]; read-out: MIC initial) was 32 mg/L (≈ 63.9 µM). The MIC ([11]; high-level mupirocin resistance) was greater than 256 mg/L and the MIC ([11]; low-level mupirocin resistance) was 8 to 256 mg/L.

With `CO[C@@H]1[C@@H](OC(N)=O)[C@@H](O)[C@H](Oc2ccc3c(O)c(NC(=O)c4ccc(O)c(CC=C(C)C)c4)c(=O)oc3c2C)OC1(C)C` [Novobiocin] the “MIC change upon MRS overexpression” value [1] was “remained unchanged”, the MIC ([1]; RN4220, pYH4-MRS, +aTc inducer) was 0.25 mg/L (≈ 0.408 µM) and the MIC ([1]; RN4220, pYH4-MRS, −aTc inducer) was 0.25 mg/L (≈ 0.408 µM). It also gave an MIC [1, 12] of 0.25 mg/L (≈ 0.408 µM) and an MIC [1, 13] of 0.25 mg/L (≈ 0.408 µM).

In the case of `CN[C@H](CC(C)C)C(=O)N[C@H]1C(=O)N[C@@H](CC(N)=O)C(=O)N[C@H]2C(=O)N[C@H]3C(=O)N[C@H](C(=O)N[C@H](C(=O)O)c4cc(O)cc(O)c4-c4cc3ccc4O)[C@H](O)c3ccc(c(Cl)c3)Oc3cc2cc(c3O[C@@H]2O[C@H](CO)[C@@H](O)[C@H](O)[C@H]2O[C@H]2C[C@](C)(N)[C@H](O)[C@H](C)O2)Oc2ccc(cc2Cl)[C@H]1O` [Vancomycin], the “MIC change upon MRS overexpression” value [1] was “remained unchanged”, the MIC ([1]; RN4220, pYH4-MRS, +aTc inducer) was 0.5 mg/L (≈ 0.345 µM) and the MIC ([1]; RN4220, pYH4-MRS, −aTc inducer) was 0.5 mg/L (≈ 0.345 µM). It also gave an MIC [1, 12] of 1 mg/L (≈ 0.69 µM) and an MIC [1, 13] of 1 mg/L (≈ 0.69 µM).
